Laboratory results taken from patent publication US11739098B2 (BRISTOL-MYERS SQUIBB COMPANY, priority 2017, dated 2023).

How the values were obtained:
Type in all cases: cell-based
human TLR7 = target: T1, human TLR7 (Homo sapiens, UniProt Q9NYK1); experiment: TLR7 inhibition reporter assay (HEK-Blue cells, SEAP reporter, gardiquimod stimulation); conditions: HEK-Blue cells overexpressing human TLR7, SEAP reporter, gardiquimod 7.5 μM
T1 construct: host or cells: HEK-Blue cells (HEK293-derived reporter line)
T1 sequence (Q9NYK1 27-1049): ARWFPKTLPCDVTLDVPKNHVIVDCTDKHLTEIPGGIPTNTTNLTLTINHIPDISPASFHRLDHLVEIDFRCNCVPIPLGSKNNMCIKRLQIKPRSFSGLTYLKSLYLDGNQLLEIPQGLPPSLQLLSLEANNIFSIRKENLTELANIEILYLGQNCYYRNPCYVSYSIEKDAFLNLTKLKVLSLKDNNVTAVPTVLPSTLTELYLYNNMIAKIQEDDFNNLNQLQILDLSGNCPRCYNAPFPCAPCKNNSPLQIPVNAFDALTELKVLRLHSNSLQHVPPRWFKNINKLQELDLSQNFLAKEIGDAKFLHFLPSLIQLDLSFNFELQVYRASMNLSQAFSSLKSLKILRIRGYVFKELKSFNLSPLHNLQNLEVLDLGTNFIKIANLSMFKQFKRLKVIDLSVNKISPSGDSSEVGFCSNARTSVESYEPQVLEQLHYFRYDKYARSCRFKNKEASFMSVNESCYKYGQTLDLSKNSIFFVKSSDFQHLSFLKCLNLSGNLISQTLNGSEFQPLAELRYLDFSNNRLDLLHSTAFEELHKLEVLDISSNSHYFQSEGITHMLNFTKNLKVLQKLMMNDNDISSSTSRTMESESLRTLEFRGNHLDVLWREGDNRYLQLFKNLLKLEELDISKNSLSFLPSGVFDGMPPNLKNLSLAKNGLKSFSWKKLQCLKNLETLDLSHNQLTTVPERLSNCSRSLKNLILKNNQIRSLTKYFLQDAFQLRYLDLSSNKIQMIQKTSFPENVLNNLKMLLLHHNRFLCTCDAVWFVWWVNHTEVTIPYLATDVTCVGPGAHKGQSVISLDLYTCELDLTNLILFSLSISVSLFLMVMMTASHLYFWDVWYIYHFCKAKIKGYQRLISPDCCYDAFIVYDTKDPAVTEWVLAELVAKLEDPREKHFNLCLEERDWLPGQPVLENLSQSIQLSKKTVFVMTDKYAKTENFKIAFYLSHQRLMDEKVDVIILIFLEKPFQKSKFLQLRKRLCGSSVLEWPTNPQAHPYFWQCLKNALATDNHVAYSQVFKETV
Outline: (§1)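 Read-out is SEAP activity in HEK-Blue detection medium after 22 h at 37 °C, converted to percent inhibition against agonist-plus-DMSO and reference-inhibitor controls. Cells saw compound (0.05 nM–50 μM, 30 min, room temperature) before gardiquimod 7.5 μM, R848 15.9 μM or ODN2006 5 nM for TLR7, TLR8 and TLR9, respectively.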

human TLR8 = target: T2, human TLR8 (Homo sapiens, UniProt Q9NR97); experiment: TLR8 inhibition reporter assay (HEK-Blue cells, SEAP reporter, R848 stimulation); conditions: HEK-Blue cells overexpressing human TLR8, SEAP reporter, R848 15.9 μM
T2 construct: host or cells: HEK-Blue cells (HEK293-derived reporter line)
T2 sequence (Q9NR97 27-1041): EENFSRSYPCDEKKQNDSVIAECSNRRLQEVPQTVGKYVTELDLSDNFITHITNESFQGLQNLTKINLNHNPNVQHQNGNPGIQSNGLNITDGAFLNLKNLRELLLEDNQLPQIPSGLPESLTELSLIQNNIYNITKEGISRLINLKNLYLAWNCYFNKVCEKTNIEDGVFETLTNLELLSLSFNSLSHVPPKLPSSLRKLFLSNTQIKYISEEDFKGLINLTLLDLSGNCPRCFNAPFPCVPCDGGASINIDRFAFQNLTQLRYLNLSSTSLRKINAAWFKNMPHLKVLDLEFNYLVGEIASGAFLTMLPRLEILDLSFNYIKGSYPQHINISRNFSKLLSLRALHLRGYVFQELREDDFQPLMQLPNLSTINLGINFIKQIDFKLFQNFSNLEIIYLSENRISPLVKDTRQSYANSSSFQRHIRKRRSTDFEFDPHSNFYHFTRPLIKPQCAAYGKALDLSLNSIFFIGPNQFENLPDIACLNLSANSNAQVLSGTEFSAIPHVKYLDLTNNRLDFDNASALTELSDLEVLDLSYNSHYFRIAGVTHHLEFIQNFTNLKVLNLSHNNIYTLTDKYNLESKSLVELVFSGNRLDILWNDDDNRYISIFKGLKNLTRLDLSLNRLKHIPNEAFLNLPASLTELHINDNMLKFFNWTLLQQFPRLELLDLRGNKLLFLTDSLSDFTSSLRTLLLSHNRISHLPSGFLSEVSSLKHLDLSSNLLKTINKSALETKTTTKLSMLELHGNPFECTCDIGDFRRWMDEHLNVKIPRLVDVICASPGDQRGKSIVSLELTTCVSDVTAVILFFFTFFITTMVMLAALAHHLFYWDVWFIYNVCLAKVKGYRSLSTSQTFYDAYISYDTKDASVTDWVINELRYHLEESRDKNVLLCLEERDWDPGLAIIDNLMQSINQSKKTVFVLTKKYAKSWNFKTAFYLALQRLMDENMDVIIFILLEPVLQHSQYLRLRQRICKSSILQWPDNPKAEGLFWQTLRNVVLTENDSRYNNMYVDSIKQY
Outline: as §1

human TLR9 = target: T3, human TLR9 (Homo sapiens, UniProt Q9NR96); experiment: TLR9 inhibition reporter assay (HEK-Blue cells, SEAP reporter, ODN2006 stimulation); conditions: HEK-Blue cells overexpressing human TLR9, SEAP reporter, ODN2006 5 nM
T3 construct: host or cells: HEK-Blue cells (HEK293-derived reporter line)
T3 sequence (Q9NR96 26-1032): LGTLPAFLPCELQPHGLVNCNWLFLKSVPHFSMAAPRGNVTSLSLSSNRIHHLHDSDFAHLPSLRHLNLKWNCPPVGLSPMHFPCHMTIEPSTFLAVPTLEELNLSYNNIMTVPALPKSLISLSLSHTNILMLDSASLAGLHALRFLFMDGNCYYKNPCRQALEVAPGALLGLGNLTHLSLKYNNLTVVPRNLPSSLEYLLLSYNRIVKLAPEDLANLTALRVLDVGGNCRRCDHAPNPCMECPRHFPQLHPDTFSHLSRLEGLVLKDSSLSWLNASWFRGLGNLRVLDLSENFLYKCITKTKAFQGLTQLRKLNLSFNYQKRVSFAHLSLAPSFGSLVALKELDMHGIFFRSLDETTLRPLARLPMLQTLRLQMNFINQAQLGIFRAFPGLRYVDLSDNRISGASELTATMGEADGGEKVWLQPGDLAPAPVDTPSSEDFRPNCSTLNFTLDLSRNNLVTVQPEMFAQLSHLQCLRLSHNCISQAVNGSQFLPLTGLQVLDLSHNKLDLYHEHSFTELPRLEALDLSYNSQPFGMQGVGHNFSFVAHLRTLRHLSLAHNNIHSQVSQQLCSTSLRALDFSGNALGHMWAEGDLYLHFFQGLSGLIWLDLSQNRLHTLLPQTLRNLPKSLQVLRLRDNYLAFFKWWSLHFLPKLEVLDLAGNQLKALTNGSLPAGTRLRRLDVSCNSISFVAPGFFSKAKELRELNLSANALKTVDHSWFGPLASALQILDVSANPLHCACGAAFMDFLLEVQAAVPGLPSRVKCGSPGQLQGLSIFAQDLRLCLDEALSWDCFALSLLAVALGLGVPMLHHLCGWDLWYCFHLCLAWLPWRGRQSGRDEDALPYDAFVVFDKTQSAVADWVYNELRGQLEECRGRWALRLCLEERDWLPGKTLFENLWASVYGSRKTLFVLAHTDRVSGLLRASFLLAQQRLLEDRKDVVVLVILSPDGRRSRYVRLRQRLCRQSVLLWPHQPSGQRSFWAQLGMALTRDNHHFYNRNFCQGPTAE
Outline: as §1

In the case of Cc1cc(-c2[nH]c3ccc(C4CCNCC4)cc3c2C(C)C)cc2ccnn12 [Example 143, 5-(3-isopropyl-5-(piperidin-4-yl)-1H-indol-2-yl)-7-methylpyrazolo[1,5-a]pyridine], the IC50 (human TLR7) is reported as < 0.1 µM, the IC50 (human TLR8) is reported as < 0.1 µM and the IC50 (human TLR9) is reported as 1 to 50 µM.

CC(C)c1c(-c2nc3c(s2)CNCC3)[nH]c2ccc(C3CCNCC3)cc12 [Example 208, 2-(3-isopropyl-5-(piperidin-4-yl)-1H-indol-2-yl)-4,5,6,7-tetrahydrothiazolo[5,4-c]pyridine] was tested, and the IC50 (human TLR7) was 1 to 50 µM, the IC50 (human TLR8) was 1 to 50 µM and the IC50 (human TLR9) was < 0.1 µM.

For Cc1cc(-c2[nH]c3ccc(C4CCN(C5COC5)CC4)cc3c2C(C)C)cn2nncc12 [Example 737, 6-(3-isopropyl-5-(1-(oxetan-3-yl)piperidin-4-yl)-1H-indol-2-yl)-4-methyl-[1,2,3]triazolo[1,5-a]pyridine], the IC50 (human TLR7) was 1 to 50 µM, the IC50 (human TLR8) was 1 to 50 µM and the IC50 (human TLR9) was 1 to 50 µM.

Cc1c(-c2[nH]c3ccc(C4CCN(CC(=O)N(C)C)CC4)cc3c2C(C)C)cn2ccnc2c1C [Example 412, 2-(4-(2-(7,8-dimethylimidazo[1,2-a]pyridin-6-yl)-3-isopropyl-1H-indol-5-yl)piperidin-1-yl)-N,N-dimethylacetamide] was tested, and the IC50 (human TLR7) was < 0.1 µM, the IC50 (human TLR8) was < 0.1 µM and the IC50 (human TLR9) was 0.1 to 1 µM.

With CCc1c(-c2cnc3cc(C)cnn23)[nH]c2ccc(C3CCNCC3)cc12 [Example 108, 3-(3-ethyl-5-(piperidin-4-yl)-1H-indol-2-yl)-7-methylimidazo[1,2-b]pyridazine] the IC50 (human TLR7) was > 50 µM, the IC50 (human TLR8) was 1 to 50 µM and the IC50 (human TLR9) was 1 to 50 µM.

In the case of CCc1c(-c2ccnc3[nH]ncc23)[nH]c2ccc(C3CCN(C(=O)C4CCN(C)CC4)CC3)cc12 [Example 648, (4-(3-ethyl-2-(1H-pyrazolo[3,4-b]pyridin-4-yl)-1H-indol-5-yl)piperidin-1-yl)(1-methylpiperidin-4-yl)methanone], the IC50 (human TLR7) is reported as < 0.1 µM, the IC50 (human TLR8) is reported as < 0.1 µM and the IC50 (human TLR9) is reported as 1 to 50 µM.

Cc1cc2cc(-c3[nH]c4ccc(C5CCN(C(=O)CN(C)C)CC5)cc4c3C(C)C)cc(C)n2n1 [Example 552, 2-(dimethylamino)-1-(4-(2-(2,7-dimethylpyrazolo[1,5-a]pyridin-5-yl)-3-isopropyl-1H-indol-5-yl)piperidin-1-yl)ethan-1-one] was tested, and the IC50 (human TLR7) was < 0.1 µM, the IC50 (human TLR8) was < 0.1 µM and the IC50 (human TLR9) was 0.1 to 1 µM.

For Cc1cc2nnnn2cc1-c1[nH]c2ccc(C3CCNCC3)cc2c1C(C)C [Example 76, 6-(3-isopropyl-5-(piperidin-4-yl)-1H-indol-2-yl)-7-methyltetrazolo[1,5-a]pyridine], the IC50 (human TLR7) was < 0.1 µM, the IC50 (human TLR8) was < 0.1 µM and the IC50 (human TLR9) was 1 to 50 µM.

For CCc1c(-c2ccnc3[nH]ncc23)[nH]c2c(F)cc(C3CCNCC3)cc12 [Example 251, 4-(3-ethyl-7-fluoro-5-(piperidin-4-yl)-1H-indol-2-yl)-1H-pyrazolo[3,4-b]pyridine], the IC50 (human TLR7) was < 0.1 µM, the IC50 (human TLR8) was 0.1 to 1 µM and the IC50 (human TLR9) was 0.1 to 1 µM.

For CCc1c[nH]c2nccc(-c3[nH]c4ccc(C5CCNCC5)cc4c3C)c12 [Example 219, 4-(3-methyl-5-(piperidin-4-yl)-1H-indol-2-yl)-3-ethyl-1H-pyrrolo[2,3-b]pyridine], the IC50 (human TLR7) was 0.1 to 1 µM, the IC50 (human TLR8) was 0.1 to 1 µM and the IC50 (human TLR9) was 0.1 to 1 µM.

Cc1ccc(-c2[nH]c3ccc(C4CCN(C(=O)C[C@H](C)O)CC4)cc3c2C(C)C)c2ncnn12 [Example 599, (S)-3-hydroxy-1-(4-(3-isopropyl-2-(5-methyl-[1,2,4]triazolo[1,5-a]pyridin-8-yl)-1H-indol-5-yl)piperidin-1-yl)butan-1-one] was tested, and the IC50 (human TLR7) was 0.1 to 1 µM, the IC50 (human TLR8) was 0.1 to 1 µM and the IC50 (human TLR9) was 1 to 50 µM.

For Cc1cc(-c2[nH]c3ccc(C4CCN(C(=O)CCN(C)C)CC4)cc3c2C(C)C)cn2nnnc12 [Example 620, 3-(dimethylamino)-1-(4-(3-isopropyl-2-(8-methyltetrazolo[1,5-a]pyridin-6-yl)-1H-indol-5-yl)piperidin-1-yl)propan-1-one], the IC50 (human TLR7) was < 0.1 µM, the IC50 (human TLR8) was < 0.1 µM and the IC50 (human TLR9) was 1 to 50 µM.

For Cc1c(-c2[nH]c3ccc(C4CCNCC4)cc3c2C(C)C)cn2ccnc2c1Cl [Example 133, 8-chloro-6-(3-isopropyl-5-(piperidin-4-yl)-1H-indol-2-yl)-7-methylimidazo[1,2-a]pyridine], the IC50 (human TLR7) was < 0.1 µM, the IC50 (human TLR8) was < 0.1 µM and the IC50 (human TLR9) was 1 to 50 µM.

For CC(C)c1c(-c2ccn3nccc3c2)[nH]c2ccc(C3CCN(CC(=O)N(C)C)CC3)cc12 [Example 441, 2-(4-(3-isopropyl-2-(pyrazolo[1,5-a]pyridin-5-yl)-1H-indol-5-yl)piperidin-1-yl)-N,N-dimethylacetamide], the IC50 (human TLR7) was < 0.1 µM, the IC50 (human TLR8) was < 0.1 µM and the IC50 (human TLR9) was 1 to 50 µM.

For CC(C)c1c(-c2ccnc3[nH]ncc23)[nH]c2ccc(C3CCN(C(=O)CN4CCC(CO)CC4)CC3)cc12 [Example 576, 2-(4-(hydroxymethyl)piperidin-1-yl)-1-(4-(3-isopropyl-2-(1H-pyrazolo[3,4-b]pyridin-4-yl)-1H-indol-5-yl)piperidin-1-yl)ethan-1-one], the IC50 (human TLR7) was < 0.1 µM, the IC50 (human TLR8) was < 0.1 µM and the IC50 (human TLR9) was 1 to 50 µM.
